# Test results: patent US12195551B2, “Combination of an ErbB-2/ErbB-3 bispecific antibody with endocrine therapy for breast cancer” (Merus N.V., priority 2017, dated 2025)
# Several values for one entry are separate records, joined by “and”; a condition that tells them apart may be missing. Identical values can stand only once. Like-named read-outs stand apart in the source and are kept apart here.
# Tests used:
# HBCx-34 PDX model = conditions: model characterisation; cited from earlier work
# [1] = tested on: human HBCx-34 breast tumor xenograft; experiment: Antitumor efficacy in HBCx-34 patient-derived breast cancer xenograft (study XTS-1521); format: in vivo, mouse
# Method: Antitumor efficacy of an HER2/HER3 targeting antibody was determined in the context of a combination treatment together with an aromatase inhibitor. […] It was used as single agent and in combination with the aromatase inhibitor Letrozole. The hormone-dependent HBCx-34 patient-derived breast cancer xenograft model established in immunodeficient mice was used as an example of a breast cancer.
# The HBCx-34 PDX model was derived from a treatment-naïve primary breast infiltrating ductal carcinoma.
# Tumor-bearing mice received estrogen diluted in drinking water (β-oestradiol, 8.5 mg/l), from the date of tumor implant to the date of inclusion. During the treatment period, mice were not supplemented with estrogen.
# Tumors of the same passage were transplanted subcutaneously onto 6-24 mice (donor mice, passage (n−1)). When these tumors reached 1000 to 2000 mm^3, donor mice were sacrificed by cervical dislocation, tumors were aseptically excised and dissected. After removing necrotic areas, tumors were cut into fragments measuring approximately 20 mm^3 and transferred in culture medium before grafting.
# 95 mice were anaesthetized with 100 mg/kg ketamine hydrochloride (batch 5D92, Exp: 2017/03, Virbac) and 10 mg/kg xylazine (batch KP0AX9X, Exp: 2017/08, Bayer), and then skin was aseptized with a chlorhexidine solution, incised at the level of the interscapular region, and a 20 mm^3 tumor fragment was placed in the subcutaneous tissue. Skin was closed with clips. All mice from the same experiment were implanted on the same day.
# Treatments were randomly attributed to boxes housing up to 5 mice and were initiated 36 days post implantation of the tumor (42% inclusion rate). The study was terminated following 57 days after the start of treatment.
# Tumor volume was evaluated by measuring tumor diameters, with a calliper, biweekly during the experimental period.
# The formula TV (mm3)=[length (mm)×width (mm)2]/2 was used, where the length and the width are the longest and the shortest diameters of the tumor, respectively.
# A total of 4 groups were used as summarized in the scheme below. Each group initially included 10 mice.
# All treatment doses were body weight adjusted at each injection.
# HBCx-34 tumors = experiment: In vivo growth characteristics of the HBCx-34 PDX model (FIG. 4); design: species or system mouse; conditions: animals that did not receive estrogens, vs vehicle
# Method: FIG. 4. In vivo growth characteristics of the HBCx-34 PDX model. A, IHC characteristics of HBCx-34 PDX tumors. B, Athymic nude mice were engrafted s.c. with HBCx-34 tumors. […] T-tests were performed to compare tumor volumes from estrogen-independent tumors treated with vehicle or Letrozole (*, p<0.05, **, p<0.01, ***, p<0.001).
# [2] = MCLA-128 25 mg/kg i.p., Letrozole […] p.o. qdx57, day of maximum as in text
# [3] = MCLA-128 25 mg/kg IP, Letrozole […] PO qdx57
smiles,measurement,setting,value
N#Cc1ccc(C(c2ccc(C#N)cc2)n2cncn2)cc1 [Letrozole],response of the HBCx-34 PDX model,HBCx-34 PDX model,low responder
same,Dunn's Multiple Comparison Test on relative body weight,"DAY 25, vs MCLA-128 25",* (* = P < 0.05)
same,Dunn's Multiple Comparison Test on relative body weight,"DAY 28, vs Vehicle MCLA-128",* (* = P < 0.05)
same,Dunn's Multiple Comparison Test on relative body weight,"DAY 32, vs MCLA-128 25",** (** = P < 0.01)
same,Dunn's Multiple Comparison Test on relative body weight,"DAY 32, vs Vehicle MCLA-128",** (** = P < 0.01)
same,Dunn's Multiple Comparison Test on relative body weight,"DAY 35, vs MCLA-128 25",* (* = P < 0.05)
same,Dunn's Multiple Comparison Test on relative body weight,"DAY 35, vs Vehicle MCLA-128",** (** = P < 0.01)
same,Dunn's Multiple Comparison Test on relative body weight,"DAY 39, vs MCLA-128 25",** (** = P < 0.01)
same,Dunn's Multiple Comparison Test on relative body weight,"DAY 39, vs Vehicle MCLA-128",** (** = P < 0.01)
same,Dunn's Multiple Comparison Test on relative body weight,"DAY 42, vs Vehicle MCLA-128",** (** = P < 0.01)
same,Dunn's Multiple Comparison Test on relative body weight,"DAY 46, vs MCLA-128 25",** (** = P < 0.01)
same,Dunn's Multiple Comparison Test on relative body weight,"DAY 46, vs Vehicle MCLA-128",** (** = P < 0.01)
same,Dunn's Multiple Comparison Test on relative body weight,"DAY 49, vs MCLA-128 25",** (** = P < 0.01)
same,Dunn's Multiple Comparison Test on relative body weight,"DAY 49, vs Vehicle MCLA-128",** (** = P < 0.01)
same,Dunn's Multiple Comparison Test on relative body weight,"DAY 53, vs MCLA-128 25",** (** = P < 0.01)
same,Dunn's Multiple Comparison Test on relative body weight,"DAY 53, vs Vehicle MCLA-128",** (** = P < 0.01)
same,Dunn's Multiple Comparison Test on relative body weight,"DAY 56, vs MCLA-128 25",** (** = P < 0.01)
same,Dunn's Multiple Comparison Test on relative body weight,"DAY 56, vs Vehicle MCLA-128",** (** = P < 0.01)
same,maximum individual body weight loss,[2],4.1%
same,maximum mean body weight loss,[2],no mean body weight loss
same,Mann-Whitney test on tumor volume,"[1]; DAY 25, vs vehicle group",* (* = P < 0.05)
same,Mann-Whitney test on tumor volume,"[1]; DAY 28, vs vehicle group",* (* = P < 0.05)
same,Dunn's Multiple Comparison Test on tumor volume,"[1]; DAY 32, vs MCLA-128 25",* (* = P < 0.05)
same,Mann-Whitney test on tumor volume,"[1]; DAY 32, vs vehicle group",** (** = P < 0.01)
same,Dunn's Multiple Comparison Test on tumor volume,"[1]; DAY 35, vs MCLA-128 25",** (** = P < 0.01)
same,Dunn's Multiple Comparison Test on tumor volume,"[1]; DAY 35, vs Vehicle MCLA-128",* (* = P < 0.05)
same,Mann-Whitney test on tumor volume,"[1]; DAY 35, vs vehicle group",*** (*** = P < 0.001)
same,Dunn's Multiple Comparison Test on tumor volume,"[1]; DAY 39, vs MCLA-128 25",** (** = P < 0.01)
same,Dunn's Multiple Comparison Test on tumor volume,"[1]; DAY 39, vs Vehicle MCLA-128",* (* = P < 0.05)
same,Mann-Whitney test on tumor volume,"[1]; DAY 39, vs vehicle group",*** (*** = P < 0.001)
same,Dunn's Multiple Comparison Test on tumor volume,"[1]; DAY 42, vs MCLA-128 25",** (** = P < 0.01)
same,Dunn's Multiple Comparison Test on tumor volume,"[1]; DAY 42, vs Vehicle MCLA-128",* (* = P < 0.05)
same,Mann-Whitney test on tumor volume,"[1]; DAY 42, vs vehicle group",*** (*** = P < 0.001)
same,Dunn's Multiple Comparison Test on tumor volume,"[1]; DAY 46, vs MCLA-128 25",** (** = P < 0.01)
same,Dunn's Multiple Comparison Test on tumor volume,"[1]; DAY 46, vs Vehicle MCLA-128",* (* = P < 0.05)
same,Mann-Whitney test on tumor volume,"[1]; DAY 46, vs vehicle group",*** (*** = P < 0.001)
same,Dunn's Multiple Comparison Test on tumor volume,"[1]; DAY 49, vs MCLA-128 25",** (** = P < 0.01)
same,Dunn's Multiple Comparison Test on tumor volume,"[1]; DAY 49, vs Vehicle MCLA-128",* (* = P < 0.05)
same,Mann-Whitney test on tumor volume,"[1]; DAY 49, vs vehicle group",*** (*** = P < 0.001)
same,Dunn's Multiple Comparison Test on tumor volume,"[1]; DAY 53, vs MCLA-128 25",** (** = P < 0.01)
same,Dunn's Multiple Comparison Test on tumor volume,"[1]; DAY 53, vs Vehicle MCLA-128",* (* = P < 0.05)
same,Mann-Whitney test on tumor volume,"[1]; DAY 53, vs vehicle group",*** (*** = P < 0.001)
same,Dunn's Multiple Comparison Test on tumor volume,"[1]; DAY 56, vs MCLA-128 25",** (** = P < 0.01)
same,Dunn's Multiple Comparison Test on tumor volume,"[1]; DAY 56, vs Vehicle MCLA-128",* (* = P < 0.05)
same,Mann-Whitney test on tumor volume,"[1]; DAY 56, vs vehicle group",*** (*** = P < 0.001)
same,Best T/C %,[1]; [3],18.68%
same,Best TGE %,[1]; [3],145.70%
same,T/C % (at control group day end),[1]; [3],18.68%
same,TGI % (at control group day end),[1]; [3],121.97%
same,median TGD × 3 (In days),[1]; [3],>56 days
same,tumor growth inhibition (in words),"[1]; MCLA-128 25 mg/kg i.p., Letrozole […] p.o. qdx57",statistically significant tumor growth inhibition
same,Mann-Whitney test on tumor volume: STAT,"[1]; STAT column, vs vehicle group",*** (*** = P < 0.001)
same,TFS (Tumor Free Survivor),[1]; number of complete regressions recorded up to Group Day End,1
same,CR (complete regression),[1]; number of mice with 0 to 14 mm^3 tumor size during at least 3 consecutive measurements,1/10 and 1
same,TS (Tumor Stabilization),[1]; number of mice with constant tumor size during at least 6 consecutive measurements,1
same,PR (partial regression),[1]; number of mice with tumor size lower than initial during at least 6 consecutive measurements,7/10 and 7
same,p compared to the group control by Dunn's test,[1]; tumor growth inhibition,< 0.05
same,"p compared with the vehicle group, Mann Whitney test",[1]; tumor growth inhibition,< 0.001
same,formation of estrogen-independent tumors,HBCx-34 tumors,significantly reduced the formation of estrogen-independent tumors
